Reference: ChEMBL document CHEMBL1142642, “Hermitamides A and B, toxic malyngamide-type natural products from the marine cyanobacterium Lyngbya majuscula” (J Nat Prod, 2000)

Legend:
[1] = Toxicity in Artemia salina; assay type: organism-based; conditions: in vivo, read-out: LD50 (the source's name)
Biomphalaria glabrata = assay: Molluscicidal activity against Biomphalaria glabrata at 10 ppm; assay type: organism-based; conditions: in vivo
[2] = Ichthyotoxicity to gold fish; assay type: organism-based; conditions: carassius auratus, in vivo; read-out: LD50 (the source's name)
[3] = Cytotoxicity against mouse Neuro2a cells after 24 hrs by MTT assay; assay type: cell-based; conditions: N2a

Q: What does the source list for `CCCCCCC[C@@H](C/C=C/CCC(=O)NCCc1ccccc1)OC` [HERMITAMIDE A]?
A: LC50 [1]: 5 µM; Activity (Biomphalaria glabrata): Not Active; LC50 [2]: 19 µM; IC50 [3]: 2.2 µM

Q: Which LC50 [1] does the source give for `CCCCCCC[C@@H](C/C=C/CCC(=O)NCCc1c[nH]c2ccccc12)OC` [HERMITAMIDE B] here?
A: 18 µM

Q: What about the Activity (Biomphalaria glabrata) of the same compound?
A: Not Active

Q: What about the LC50 [2] of the same compound?
A: 25 µM

Q: What about the IC50 [3] of the same compound?
A: 5.5 µM

Q: For `CCCCCCC[C@@H](C/C=C/CCC(=O)N(C)C/C(=C/Cl)c1cccc(C)c1O)OC` [MALYNGAMIDE M], which IC50 [3] is on record?
A: > 20 µM

Q: For `CCCCCCC[C@@H](C/C=C/CCC(=O)N(C)C/C(=C/Cl)[C@]12O[C@H]1CC=C(C)C2=O)OC` [MALYNGAMIDE N], which IC50 [3] is on record?
A: 12 µM
